Here are results for 3 molecules from patent US12508271B2, “Prodrugs of 2-PMPA for healthy tissue protection during PSMA-targeted cancer imaging or radiotherapy” (The Johns Hopkins University, priority 2017, dated 2025).

Some results are limits rather than exact numbers.

For series [1], the target named is T1, PSMA (Homo sapiens, UniProt Q04609). As to the kind of experiment: 177Lu-PSMA-617 radiation dosimetry in mCRPC patients with Tris-POC-2-PMPA pre-treatment versus historical controls. It counts as in vivo. The arrangement: from tissue; host or cells: kidneys, salivary and lacrimal glands, and tumour lesions/metastases of living human subjects (PET / gamma imaging). As to conditions: for 177Lu-PSMA-617 absorbed dose, kidneys / 177Lu-PSMA-617 absorbed dose, parotid gland / 177Lu-PSMA-617 absorbed dose, submandibular gland / 177Lu-PSMA-617 mean dose to metastases: 15 minutes prior to infusion. The procedure: ^177Lu-PSMA-617 was offered as surrogate therapy in accordance with the updated Declaration of Helsinki, paragraph-37 “Unproven Interventions in Clinical Practice,” and in accordance with German regulations for “compassionate use,” which includes priority of all approved treatments (without contraindications) and confirmation of the indication by both a nuclear medicine physician and an external expert in urology or oncology. No systematic patient selection was performed, except all patients had to present with a PSMA-positive tumor phenotype based on PSMA imaging. All patients were informed about the experimental nature of this therapy and gave written informed consent. The institutional review board approved this retrospective study. Two patients were pre-treated with Tris-POC-2-PMPA prior to administration of ^177Lu-PSMA-617. […] Dosimetry data from historical controls presented herein are derived from patients treated under the same protocol at our center as previously reported (J Nucl Med. 2016 August; 57(8):1170-6.). All dosimetry methods were conducted as previously described in that report (J Nucl Med. 2016 August; 57(8):1170-6.).
T1 sequence (Q04609 whole entry, the tested form may be a part): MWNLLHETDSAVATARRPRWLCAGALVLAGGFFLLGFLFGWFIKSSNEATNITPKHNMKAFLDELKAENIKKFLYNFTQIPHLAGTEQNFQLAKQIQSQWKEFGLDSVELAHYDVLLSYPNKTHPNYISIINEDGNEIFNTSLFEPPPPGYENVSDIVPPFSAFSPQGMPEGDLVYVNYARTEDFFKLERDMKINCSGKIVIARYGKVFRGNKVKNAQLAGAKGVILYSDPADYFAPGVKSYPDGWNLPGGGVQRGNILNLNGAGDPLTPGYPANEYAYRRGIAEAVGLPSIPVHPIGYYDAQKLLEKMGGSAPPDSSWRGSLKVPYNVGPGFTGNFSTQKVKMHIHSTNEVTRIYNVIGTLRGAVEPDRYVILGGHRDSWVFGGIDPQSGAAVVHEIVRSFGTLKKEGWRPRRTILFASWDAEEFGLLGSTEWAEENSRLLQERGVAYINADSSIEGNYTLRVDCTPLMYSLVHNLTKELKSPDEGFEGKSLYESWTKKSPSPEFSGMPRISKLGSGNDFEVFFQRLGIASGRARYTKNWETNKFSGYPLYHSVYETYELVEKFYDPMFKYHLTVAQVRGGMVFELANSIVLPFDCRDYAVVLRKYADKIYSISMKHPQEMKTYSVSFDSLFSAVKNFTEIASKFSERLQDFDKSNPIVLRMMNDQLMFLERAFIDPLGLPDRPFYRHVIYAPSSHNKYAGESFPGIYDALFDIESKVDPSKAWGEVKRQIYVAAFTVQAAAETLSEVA

Series [2] addresses PSMA (Mus musculus, UniProt O35409). As to the kind of experiment: Displacement study of 68Ga-PSMA-617 in LNCaP tumor xenograft bearing nude mice (PET). It counts as in vivo. More on the design: from tissue; host or cells: kidney of nude mice bearing LNCaP xenografts (PET). The procedure:
(§1) 5*10^6 LNCaP cells (BD Biosciences) were implanted behind the left shoulder of n=3 nude mice; tumors reached a diameter of approximately 1-cm diameter 8-12 weeks after inoculation. Baseline uptake of the radiopharmaceutical in kidneys and tumor was quantified per animal PET-scan (Siemens, Inveon) 1 h after injection of ^68Ga-PSMA-617 (10-40 MBq ^68Ga tagged to […] PSMA-617 precursor). Immediately after the baseline scan animals were injected with 0.5 mg/kgBW or 0.05 mg/kgBW Tris-POC-2-PMPA in […] saline or pure saline as control. Another 1 h later, i.e., 2 h after injection of the PET-tracer, ^68Ga-PSMA-617 uptake in kidneys and tumor were re-evaluated per second animal PET (displacement scan).

In series [3] the target is T2, renal PSMA (Mus musculus, UniProt O35409).
T2 construct: from tissue; host or cells: kidney of living NMRI mice (PET)
T2 sequence (O35409 whole entry): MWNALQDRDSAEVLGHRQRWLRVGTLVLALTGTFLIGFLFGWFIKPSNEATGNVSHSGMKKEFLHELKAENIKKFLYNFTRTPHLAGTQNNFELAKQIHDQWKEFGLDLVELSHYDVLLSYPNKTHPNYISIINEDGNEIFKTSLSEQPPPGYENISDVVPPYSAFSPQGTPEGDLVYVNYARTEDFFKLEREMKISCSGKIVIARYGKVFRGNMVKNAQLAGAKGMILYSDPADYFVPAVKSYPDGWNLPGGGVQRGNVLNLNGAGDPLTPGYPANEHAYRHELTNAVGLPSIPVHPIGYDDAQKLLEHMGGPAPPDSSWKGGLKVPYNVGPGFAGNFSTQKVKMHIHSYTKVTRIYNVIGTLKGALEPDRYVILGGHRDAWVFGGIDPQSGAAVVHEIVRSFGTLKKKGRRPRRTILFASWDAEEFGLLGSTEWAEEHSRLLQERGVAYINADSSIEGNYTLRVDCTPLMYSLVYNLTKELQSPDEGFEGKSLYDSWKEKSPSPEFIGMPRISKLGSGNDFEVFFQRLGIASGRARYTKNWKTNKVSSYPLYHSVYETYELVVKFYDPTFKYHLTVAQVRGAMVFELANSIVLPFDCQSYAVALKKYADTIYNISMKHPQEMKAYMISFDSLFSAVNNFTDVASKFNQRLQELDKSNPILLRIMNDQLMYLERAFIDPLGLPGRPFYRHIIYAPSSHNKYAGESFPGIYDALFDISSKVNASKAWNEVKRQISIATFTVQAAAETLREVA
As to the kind of experiment: Displacement study of 68Ga-PSMA-617 in non-tumor-bearing NMRI mice (PET). Type of series: in vivo. As to conditions: 0.5 mg/kg i.v. 1 h after tracer, scan 2 h after tracer. The method, then: ^68Ga-PSMA-617 was synthesized as described previously (Afshar-Oromieh et al., 2015). The specific activity of the radiopharmaceutical used in the presented animal study (20 MBq of ^68Ga tagged to 0.2-0.8 μg of precursor peptide) corresponds to the one used in clinical application (Afshar-Oromieh et al., 2015). Three non-tumor-bearing NMRI mice were injected via the tail vein with 20 MBq of ^68Ga-PSMA-617. 1 h post injection, enough time for specific tracer binding to renal PSMA and clearance of unbound tracer from the kidney calices, mice were imaged in a dedicated small animal PET-scanner (Siemens, Inveon) to quantify kidney uptake (baseline-scan). Immediately after the baseline scan 16 μg Tris-POC-2-PMPA (0.5 mg/kg*32.1 g bodyweight (BW) of all mice) in 100 μL saline was injected via the tail vein. Another 1 h later, i.e., 2 h after injection of the PET-tracer, ^68Ga-PSMA-617 kidney uptake was re-evaluated per animal PET (displacement-scan).

Series [4] concerns the target T1, PSMA. As to the kind of experiment: Kidney and salivary gland uptake of 68Ga-PSMA-617 in healthy human subject with and without Tris-POC-2-PMPA pre-dosing (PET). It counts as in vivo. More on the design: from tissue; host or cells: kidneys, salivary and lacrimal glands, and tumour lesions/metastases of living human subjects (PET / gamma imaging). The procedure:
From a couple of patients who had been imaged (Siemens, mCT) 0.1 h, 1 h, 2 h, 3 h and 4 h after injection of ^68Ga-PSMA-617 previously (Afshar-Oromieh et al., 2015), one subject without relevant tumor-load (<5 mL) was chosen to quantify the physiologic spontaneous tracer uptake in kidneys and salivary gland during the examination time. For the intervention experiment, one healthy volunteer was injected with […] (0.05 mg/kgBW) Tris-POC-2-PMPA solution (in 2.5 mL of 30% ethanol) 15 min before application of the PET-tracer. Again, PET-scans (Siemens, mCT) were performed 0.1 h, 1 h, 2 h, 3 h and 4 h after injection of ^68Ga-PSMA-617 and quantified per SUVmax for tracer uptake in kidneys and salivary glands over time.

Series [5] deals with PSMA. Description: Displacement study of 68Ga-PSMA-617 in LNCaP tumor xenograft bearing nude mice (PET). It counts as in vivo. To be noted: average of two animals, 0.5 or 0.05 mg/kgBW after baseline scan; baseline mSUV 1.02; saline control mSUV 0.84. The procedure: as §1
Series [6] addresses T1, PSMA. Description: Tumor, kidney and salivary gland uptake of 68Ga-PSMA-617 in a prostate cancer patient with and without Tris-POC-2-PMPA pre-dosing (PET). It counts as in vivo. The arrangement: from tissue; host or cells: kidneys, salivary and lacrimal glands, and tumour lesions/metastases of living human subjects (PET / gamma imaging). The procedure: One patient was PET imaged 1 h after injection of ^68Ga-PSMA-617 and quantified per SUVmax for tracer uptake in tumor, kidneys and salivary glands. On a subsequent day, the same patient was imaged using the same protocol but with pretreatment of 10 mg (0.1 mg/kgBW) Tris-POC-2-PMPA solution (in 2.5 mL of 30% ethanol) 15 min before application of the PET-tracer.

Series [7] is described as follows: Comparative tissue distribution of 2-PMPA prodrugs versus equimolar 2-PMPA in nude mice (kidney 2-PMPA by LC/MS-MS). Type of series: in vivo. As to conditions: 5 mg/kg or molar equivalent, i.p., 30 minutes. The method, then:
Nude mice were administered either 2-PMPA or the prodrugs LTP-144 or Tris-POC-2-PMPA (compound 10 of Table 1) (5 mg/kg or molar equivalent, i.p.) prior to brief isoflurane anesthesia, saline perfusion, and sacrificed 30 minutes later. Kidneys were removed and flash frozen in liquid nitrogen. Each tissue sample was assessed for 2-PMPA concentration using previously described LC/MS-MS based bioanalysis (Majer et al., 2016). In addition, a prodrug of the urea-based PSMA ligand ZJ-43 (with similar pro-moiety modifications to Tris-POC-2-PMPA) was tested using similar methods.

For series [8], the target named is T1, PSMA. The arrangement: from tissue; host or cells: kidneys, salivary and lacrimal glands, and tumour lesions/metastases of living human subjects (PET / gamma imaging). To be noted: without Tris-POC-2-PMPA; same center (Kratochwil et al., 2016); cited from earlier work.
For series [9] the following is noted: cited from earlier work.
Where [10] appears, read: 10 mg, i.v., 15 minutes prior to tracer, PET 1 h p.i., same patient.
[11] abbreviates: PET 1 hour after administration, no Tris-POC-2-PMPA.
[12] abbreviates: other mCRPC patients, literature.

Sequence of PSMA (Mus musculus, UniProt O35409) (O35409 whole entry): as above

With `CC(C)OC(=O)OCOC(=O)C(CCC(=O)O)CP(=O)(OCOC(=O)OC(C)C)OCOC(=O)OC(C)C` (centres unmarked) [Tris-POC-2-PMPA], in [1] (patient 1, 10 mg, i.v.), the “177Lu-PSMA-617 absorbed dose, kidneys” value came out at 0.38 Gy/GBq; the “177Lu-PSMA-617 absorbed dose, parotid gland” value was 0.24 Gy/GBq; the “177Lu-PSMA-617 absorbed dose, submandibular gland” value is 0.5 Gy/GBq; the “177Lu-PSMA-617 mean dose to metastases” value is 8.03 Gy/GBq. In series [1] (patient 2, 10 mg, i.v.), the “177Lu-PSMA-617 absorbed dose, kidneys” value stood at 0.43 Gy/GBq; the “177Lu-PSMA-617 absorbed dose, parotid gland” value was determined as 0.46 Gy/GBq; the “177Lu-PSMA-617 absorbed dose, submandibular gland” value was 0.44 Gy/GBq; the “177Lu-PSMA-617 mean dose to metastases” value stood at 13.15 Gy/GBq. Further, in series [1] (pre-treatment), the “effect on liver exposure to 177Lu-PSMA-617” value is “modestly reduce” and the “effect on spleen dose of 177Lu-PSMA-617” value is recorded as “no clear effect”. The “dose reduction to the lacrimal glands relative to mean control values” in series [1] (pre-treatment before 177Lu-PSMA-617) is “about 82%”. Moreover, in series [1] (pre-treatment, versus historical controls), the “effect on the 177Lu-PSMA-617 dose to metastases” value was “little or no effect”. In addition, the “dose reduction, salivary glands, relative to historical controls” value in [1] (two patients, prior to infusion of 177Lu-PSMA-617) came out at 72%. Further, in series [1] (two patients, 10 mg, i.v.), the “mean absorbed dose reduction, kidneys, relative to historical controls” value was 45%; the “mean absorbed dose reduction, parotid gland, relative to historical controls” value is listed as 76%; the “mean absorbed dose reduction, submandibular gland, relative to historical controls” value came to 67%. Moreover, the “mean absorbed dose reduction, kidneys, relative to historical controls” value in series [1] (two patients, 10 mg, i.v., listed as TRIS-POC-2-PMPA) was 48%. For the same molecule, in series [2] (0.5 or 0.05 mg/kgBW after baseline scan, baseline mSUV 2.36, saline control mSUV 0.47), the “kidney uptake of 68Ga-PSMA-617 in displacement-scan” value is 0.24 mSUV. The “kidney uptake lower than achieved with forced diuresis (saline control)” value in series [2] (displacement-scan, 2 h after tracer) came out at 50%. In series [3], the “residual kidney uptake relative to baseline” value was < 10 % of baseline-uptake. The “residual kidney uptake of 68Ga-PSMA-617 in displacement-scan” value in series [3] (baseline-scan 3.4 mSUV) worked out at 0.3 mSUV. In series [4] (5 mg (0.05 mg/kgBW) 15 min before tracer, healthy volunteer), the “decrease of maximum 68Ga-PSMA-617 uptake in kidney parenchyma versus representative control” value was found to be 65%. The “maximum 68Ga-PSMA-617 uptake in parotid glands” value in [4] (5 mg (0.05 mg/kgBW) 15 min before tracer, control without pre-dosing 41.2) is given as 13.5 SUVmax. In addition, the “maximum 68Ga-PSMA-617 uptake in kidney parenchyma” value in series [4] (5 mg (0.05 mg/kgBW) 15 min before tracer, control without pre-dosing 47.5) came to 16.5 SUVmax. Besides, the “displacement of 68Ga-PSMA-617 binding to kidney and salivary glands” value in [4] (pre-administration, healthy human male) was “approximately 65%”. For the same molecule, the “tumor uptake of 68Ga-PSMA-617 in displacement-scan” value in series [5] is reported as 1.00 mSUV. Besides, the “mean change of 68Ga-PSMA-617 uptake in metastases” value in series [6] (10 mg, i.v., 15 minutes prior to tracer) was found to be 3%. Moreover, in series [6] (setting [10]), the “68Ga-PSMA-617 uptake in kidneys after pre-treatment” value turned out to be 8.5 SUVmax, the “68Ga-PSMA-617 uptake in metastases after pre-treatment” value is 3.9-8.8 SUVmax, the “68Ga-PSMA-617 uptake in parotid gland after pre-treatment” value is 10.6 SUVmax and the “68Ga-PSMA-617 uptake in submandibular gland after pre-treatment” value is listed as 14.6 SUVmax. Moreover, the “effect on tumor uptake of the tracer” value in [6] (intraindividual comparison, prostate cancer patient) is on record as “completely spared tumor uptake”. Also, the “concentrations of 2-PMPA in the kidney compared to an equimolar dose of 2-PMPA” value in series [7] is listed as “significantly increased”.
Regarding `O=C([O-])CN1CCN(CC(=O)[O-])CCN(CC(=O)NC[C@H]2CC[C@H](C(=O)N[C@@H](Cc3ccc4ccccc4c3)C(=O)NCCCC[C@H](NC(=O)N[C@@H](CCC(=O)O)C(=O)O)C(=O)O)CC2)CCN(CC(=O)[O-])CC1.[68Ga+3]` [^68Ga-PSMA-617, reference compound], in [6] (setting [11]), the “uptake in kidneys without pre-treatment” value worked out at 35.4 SUVmax, the “uptake in metastases without pre-treatment” value is reported as 3.6-12.5 SUVmax, the “uptake in parotid gland without pre-treatment” value was determined as 18.2 SUVmax and the “uptake in submandibular gland without pre-treatment” value amounted to 23.1 SUVmax.
As for `O=C([O-])CN1CCN(CC(=O)[O-])CCN(CC(=O)NCC2CCC(C(=O)N[C@@H](Cc3ccc4ccccc4c3)C(=O)NCCCC[C@H](NC(=O)N[C@@H](CCC(=O)O)C(=O)O)C(=O)O)CC2)CCN(CC(=O)[O-])CC1.[177Lu+3]` (some centres unmarked) [^177Lu-PSMA-617], in [8], the “mean absorbed dose to the kidneys, historical controls” value is 0.78 Gy/GBq; the “mean absorbed dose to the red marrow, historical controls” value is on record as 0.03 Gy/GBq; the “mean absorbed dose to the salivary glands, historical controls” value is given as 1.44 Gy/GBq. Besides, the “mean effective dose to the lacrimal glands” value in series [9] (Hohberg et al., 2016) is given as 2.82 Gy/GBq. In addition, in series [9] (setting [12]), the “absorbed dose to the kidneys, reported range” value is reported as 0.53-0.99 Gy/GBq; the “absorbed dose to the red marrow, reported range” value is 0.01-0.05 Gy/GBq; the “absorbed dose to the salivary glands, reported range” value is 0.72-1.90 Gy/GBq.
